Toxic doses and inconclusive results are not listed.
Test system: CD2F1 mice, L1210 leukemia ip, survival T/C
Test: NCI In Vivo Anticancer Drug Screen. Data for tumor model L1210 Leukemia (intraperitoneal) in CD2F1 (CDF1) mice
Conditions: higher = longer survival
Outline: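 Vehicle-treated tumor-bearing mice served as controls (C) for compound-treated mice (T). Reported figure is T divided by C.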

[1] = endpoint: mean survival time, dose: 100.0 mg/kg/injection, schedule: Q01DX009 (ip), vehicle: saline with Tween-80
[2] = endpoint: mean survival time, dose: 100.0 mg/kg/injection, schedule: Q04DX003 (ip), vehicle: saline with Tween-80
[3] = endpoint: mean survival time, dose: 200.0 mg/kg/injection, schedule: Q04DX003 (ip), vehicle: saline with Tween-80
[4] = endpoint: mean survival time, dose: 100.0 mg/kg/injection, schedule: Q01DX001 (ip), vehicle: saline with Tween-80
[5] = endpoint: mean survival time, dose: 200.0 mg/kg/injection, schedule: Q01DX001 (ip), vehicle: saline with Tween-80
[6] = endpoint: mean survival time, dose: 200.0 mg/kg/injection, schedule: Q01DX009 (ip), vehicle: saline with Tween-80
[7] = endpoint: mean survival time, dose: 400.0 mg/kg/injection, schedule: Q01DX001 (ip), vehicle: saline with Tween-80
[8] = endpoint: mean survival time, dose: 100.0 mg/kg/injection, schedule: Q01DX001 (ip), vehicle: Klucel (hydroxypropylcellulose) (HPC)
[9] = endpoint: mean survival time, dose: 100.0 mg/kg/injection, schedule: Q04DX002 (ip), vehicle: saline with Tween-80
[10] = endpoint: mean survival time, dose: 400.0 mg/kg/injection, schedule: Q04DX003 (ip), vehicle: saline with Tween-80

CNC(=O)c1cccc2c(Nc3ccc(NS(C)(=O)=O)cc3OC)c3cccc(C)c3nc12
T/C (endpoint: median survival time, dose: 3.0 mg/kg/injection, schedule: Q01DX009 (ip), vehicle: water): 181 % of control | T/C (endpoint: median survival time, dose: 6.25 mg/kg/injection, schedule: Q01DX009 (ip), vehicle: water): 195 % of control | T/C (endpoint: median survival time, dose: 12.0 mg/kg/injection, schedule: Q01DX009 (ip), vehicle: water): 98 % of control | T/C (endpoint: median survival time, dose: 12.5 mg/kg/injection, schedule: Q01DX005 (oral), vehicle: water): 160 % of control | T/C (endpoint: median survival time, dose: 12.5 mg/kg/injection, schedule: Q01DX009 (ip), vehicle: water): 102 % of control | T/C (endpoint: median survival time, dose: 25.0 mg/kg/injection, schedule: Q01DX005 (oral), vehicle: water): 102 % of control | T/C (endpoint: median survival time, dose: 25.0 mg/kg/injection, schedule: Q01DX009 (ip), vehicle: water): 87 % of control

O=C(SCN1CCCCC1)c1ccccc1
T/C (endpoint: mean survival time, dose: 50.0 mg/kg/injection, schedule: Q01DX009 (ip), vehicle: saline with Tween-80): 98 % of control | T/C [1]: 103 % of control | T/C [2]: 97 % of control | T/C [3]: 95 % of control

CCOC(=O)c1csc(-c2csc(CCNC(=O)c3ccccc3)n2)n1
T/C [4]: 97 % of control | T/C [1]: 102 % of control | T/C (endpoint: mean survival time, dose: 100.0 mg/kg/injection, schedule: Q04DX003 (ip), vehicle: saline): 96 % of control | T/C [5]: 98 % of control | T/C [6]: 100 % of control | T/C (endpoint: mean survival time, dose: 200.0 mg/kg/injection, schedule: Q04DX003 (ip), vehicle: saline): 101 % of control | T/C [7]: 101 % of control | T/C (endpoint: mean survival time, dose: 400.0 mg/kg/injection, schedule: Q01DX009 (ip), vehicle: saline with Tween-80): 96 % of control | T/C (endpoint: mean survival time, dose: 400.0 mg/kg/injection, schedule: Q04DX003 (ip), vehicle: saline): 95 % of control

COC(=O)c1cc(-c2ccccc2)n(-c2ccccc2)c1-c1ccccc1
T/C [8]: 94 % of control | T/C [9]: 90 % of control | T/C (endpoint: mean survival time, dose: 200.0 mg/kg/injection, schedule: Q01DX001 (ip), vehicle: Klucel (hydroxypropylcellulose) (HPC)): 89 % of control | T/C (endpoint: mean survival time, dose: 200.0 mg/kg/injection, schedule: Q04DX002 (ip), vehicle: saline with Tween-80): 87 % of control | T/C (endpoint: mean survival time, dose: 400.0 mg/kg/injection, schedule: Q01DX001 (ip), vehicle: Klucel (hydroxypropylcellulose) (HPC)): 89 % of control | T/C (endpoint: mean survival time, dose: 400.0 mg/kg/injection, schedule: Q04DX002 (ip), vehicle: saline with Tween-80): 94 % of control

Cc1c(F)c(F)c(C(=O)O)c(F)c1F
T/C [1]: 96 % of control | T/C [2]: 100 % of control | T/C [6]: 93 % of control | T/C [3]: 101 % of control | T/C [10]: 93 % of control

OC1COC(C(F)(F)F)(C(F)(F)F)C1 (centres undefined)
T/C [2]: 94 % of control | T/C [3]: 93 % of control | T/C [10]: 96 % of control

C=C(NC(=O)C(=C)NC(=O)c1csc(C2=NC3c4csc(n4)C4NC(=O)c5csc(n5)C(C(C)(O)C(C)O)NC(=O)C5CSC(=N5)/C(=C/C)NC(=O)C(C(C)O)NC(=O)c5csc(n5)C3(CC2)NC(=O)C(C)NC(=O)C(=C)NC(=O)C(C)NC(=O)C(C(C)CC)NC2C=Cc3c(C(C)O)cc(nc3C2O)C(=O)OC4C)n1)C(N)=O (centres undefined)
T/C (endpoint: mean survival time, dose: 118.0 mg/kg/injection, schedule: Q04DX003 (ip), vehicle: saline): 117 % of control

FC(F)(F)C(F)(F)CI
T/C [4]: 105 % of control | T/C [5]: 98 % of control | T/C [7]: 94 % of control

Cc1ccnc(N/C=C/c2cc[n+](C)cc2)c1
T/C (endpoint: mean survival time, dose: 75.0 mg/kg/injection, schedule: Q01DX001 (ip), vehicle: saline): 105 % of control | T/C (endpoint: mean survival time, dose: 150.0 mg/kg/injection, schedule: Q01DX001 (ip), vehicle: saline): 111 % of control | T/C (endpoint: mean survival time, dose: 300.0 mg/kg/injection, schedule: Q01DX001 (ip), vehicle: saline): 114 % of control

NC(CC[Se]Cc1ccccc1)C(=O)O (centres undefined)
T/C (endpoint: mean survival time, dose: 6.25 mg/kg/injection, schedule: Q01DX009 (ip), vehicle: saline with Tween-80): 92 % of control | T/C (endpoint: mean survival time, dose: 12.5 mg/kg/injection, schedule: Q01DX009 (ip), vehicle: saline with Tween-80): 92 % of control | T/C (endpoint: mean survival time, dose: 25.0 mg/kg/injection, schedule: Q01DX009 (ip), vehicle: saline with Tween-80): 92 % of control | T/C [2]: 90 % of control | T/C [3]: 86 % of control

CC1(C)N=C(N)N=C(N)N1c1ccc(Cl)c(Cl)c1
T/C (endpoint: mean survival time, dose: 25.0 mg/kg/injection, schedule: Q04DX002 (ip), vehicle: saline with Tween-80): 102 % of control | T/C (endpoint: mean survival time, dose: 50.0 mg/kg/injection, schedule: Q04DX002 (ip), vehicle: saline with Tween-80): 98 % of control | T/C [8]: 96 % of control | T/C [9]: 90 % of control

CC(=O)CC(C)(C)C1CCCCC1
T/C (endpoint: mean survival time, dose: 25.0 mg/kg/injection, schedule: Q01DX009 (ip), vehicle: Klucel (hydroxypropylcellulose) (HPC)): 93 % of control | T/C (endpoint: mean survival time, dose: 50.0 mg/kg/injection, schedule: Q01DX009 (ip), vehicle: Klucel (hydroxypropylcellulose) (HPC)): 93 % of control | T/C (endpoint: mean survival time, dose: 100.0 mg/kg/injection, schedule: Q01DX009 (ip), vehicle: Klucel (hydroxypropylcellulose) (HPC)): 96 % of control | T/C (endpoint: mean survival time, dose: 200.0 mg/kg/injection, schedule: Q01DX009 (ip), vehicle: Klucel (hydroxypropylcellulose) (HPC)): 93 % of control
